In the NIST ThermoML archive (doi:10.1021/je020114l) one finds viscosity data, which are given here for three compounds.

For orientation: viscosity means the internal friction of a fluid under shear.

± gives the expanded uncertainty stated by the source.

For the data set the following is noted: 101.33 kPa, Liquid, Capillary tube (Ostwald / Ubbelohde) method.

For `CCCCCC` [hexane], the viscosity worked out at 0.2944 ± 0.0034 mPa·s (298.15 K) and 0.2537 ± 0.0031 mPa·s (313.15 K).
As for `CCC(C)O` (stereo unspecified) [butan-2-ol], the viscosity reads like this: (298.15 K) 3.08 ± 0.027 mPa·s; (313.15 K) 1.794 ± 0.016 mPa·s.
Taken in the same sequence, the figures for `CCCCCl` [1-chlorobutane] were 0.4273 ± 0.0045 mPa·s and 0.3645 ± 0.004 mPa·s.
